Laboratory results as given in patent US11578110B2, “Compounds for inducing tissue formation and uses thereof” (HISTIDE AG, priority 2015, dated 2023).

These sequences were tested on hMSCs (assay: STRO-1 stemness marker expression in hMSCs (immunostaining, ImageJ quantification)). Conditions: SEQ ID NO: 1 to 49 tested in combination with a bioactive carrier (titanium, ceramics, PEEK, hydrogel, etc.).
Type: cell-based, Human
Experimental: The cells were first fixed for 20 min with 4% paraformaldehyde/PBS at 4° C. After fixation, the cells were permeabilized in PBS containing 1% Triton X-100 for 15 min. Runx2, Osterix, Stro-1, Vinculin, Phalloidin, Osteopontin, Sox2, Sox9 antibodies were visualized by treating the cells with 1% (v/v) specific monoclonal antibodies for 1 hour at 37° C. Then the samples were incubated with Alexa fluor® 568 or 647 (F(ab′)2 fragment of IgG(H+L)) during 30 min at room temperature. The cell nuclei were counterstained in 20 ng/mL DAPI for 10 min at room temperature.
For this type of quantification the freeware image analysis ImageJ® software was used. The raw image was first converted to an 8-bit file, and then the unsharp mask feature was used (settings 1:0.2) to remove the image background (rolling ball radius 10). After smoothing, the resulting image, which appears similar to the original photomicrograph but with minimal background, was then converted to a binary image by setting a threshold. Threshold values were determined empirically by selecting a setting, which gave the most accurate binary image for a subset of randomly selected photomicrographs. The cell area was determined by manual delineation on raw fluorescent images. Total contact area and mean contact area per cell were calculated by “analyse particles” in ImageJ®. A minimum of 30 cells per condition were analyzed. Stro-1, CD-34+, and CD-105 expressions were determined using this procedure.
hMSCs were cultured on conventional cell culture plastic plates with or without the presence in the cell culture media of different GFR-binding compounds as defined hereins (SEQ ID NO: 50 to 104) in solution. […] This was probed by Stro-1 immunostaining after cell fixation as described in the Methods section. The quantification of Stro-1 positive contact numbers and areas was performed as described in the Methods section. A minimum of 30 cells per condition were analyzed.
RMSD values are always calculated for a GFR-binding peptide sequence exempt from any bioactive-carrier-affinity-containing group as defined herein (e.g. cysteine, WWFWG, GTPGP, etc. . . . ). When needed i.e. when attachment to a bioactive carrier is contemplated, the bioactive-carrier-affinity-containing group is then present in the GFR-binding compound when it is biologically tested. Using the method detailed in the description, the RMSD of 57 previously reported peptide sequences have been determined (Table 6) and correlated with the expression of STRO-1 after grafted on a PET surface via a procedure as already described above. […] One should note that it is commonly admitted that the expression of STRO-1 in a cell is indicative of a cell that is in a substantially non-differentiated state and the decrease of its expression of at least about 20% is indicative of a cell that has started a processes of differentiation but which may not result in the differentiation of the cell. A decrease of more than 50% would be indicative of the presence of a significant shift towards a differentiated state. A decrease of more than 70% would be indicative of the presence of a very important shift towards a differentiated state. A sustained decrease (e.g. for at least 96 h) of more than 50% or 70% would be indicative of the presence of an even more important shift towards a differentiated state.
Likewise, using the method detailed in the description, the RMSD of 87 GFR-binding peptide sequence representatives of the invention have been determined (Table 7) and correlated with the expression of STRO-1 after grafted on a PET surface via a procedure as already described above. SEQ ID NO: 1 to 49 were tested in combination with a bioactive carrier as defined above in the Examples Section (i.e. titanium, ceramics, PEEK, hydrogel, etc. . . . ), whereas SEQ ID NO: 1143 to 1180 were tested in solution.

Sequence	STRO-1 expression [%]
AAPASSSVPTRLSAISMLYL [SEQ ID NO: 2]	18
ASAAPSSVPAALSPISILYI [SEQ ID NO: 44]	15
ASASPSSTQVDLRPVQVRKI [SEQ ID NO: 40]	36
ASASPSSVSQDLSAISMLYL [SEQ ID NO: 15]	13
AVPKASSAPTKLSAISMLYL [SEQ ID NO: 19]	19
GGGKASSVPTKLSAISMLYL [SEQ ID NO: 21]	30

Same assay, conditions: SEQ ID NO: 1143 to 1180 tested in solution

Sequence	STRO-1 expression [%]
AASKASSSRVELRSVKIAKV (GFR-binding peptide) [SEQ ID NO: 1152]	33
AASKASSSRVKMSPINVLYF (GFR-binding peptide) [SEQ ID NO: 1167]	19
AASKASSTPTDLNAISTLYF (GFR-binding peptide) [SEQ ID NO: 1158]	20
AASKASSVPEKMRPVQTRKI (GFR-binding peptide) [SEQ ID NO: 1179]	32
AASKASSVPQEEEPLPMVYY (GFR-binding peptide) [SEQ ID NO: 1149]	23
AASKASSVPQRLRSVKVAKV (GFR-binding peptide) [SEQ ID NO: 1177]	31
GIPEPSSAPTELSATSILYY (GFR-binding peptide) [SEQ ID NO: 1146]	20
GIPEPSSAPTRLEPISMLYL (GFR-binding peptide) [SEQ ID NO: 1164]	16
GIPEPSSAPVDLKPLSTLYV (GFR-binding peptide) [SEQ ID NO: 1148]	11

Same assay, conditions: grafted on a PET surface

Sequence	STRO-1 expression [%]
AETLHTLGLSAPVIESAISDAI (Previously reported sequence) [SEQ ID NO: 1136, reference compound]	93
ANINKDRDNVPAATSSLSKAYNP (Previously reported sequence) [SEQ ID NO: 1119, reference compound]	92
APTKLNAISVLYFDDSSNVILKKYRNMIVKS (Previously reported sequence) [SEQ ID NO: 1126, reference compound]	84
APTQLSAISVL (Previously reported sequence) [SEQ ID NO: 1127, reference compound]	93
CCAPTELSAISVLYFDDSSNVILKKYRNMVVRACGCR (Previously reported sequence) [SEQ ID NO: 1139, reference compound]	81
CCAPTQLSAISVLYFDDSSNVILKKYRNMVVRACGCR (Previously reported sequence) [SEQ ID NO: 1140, reference compound]	82
CIPKPSSAPTELSAISMLYL (Previously reported sequence) [SEQ ID NO: 1134, reference compound]	83
CKIPKPSSAPTELSAISMLYL (Previously reported sequence) [SEQ ID NO: 1135, reference compound]	78
CPKPSSAPTELSAISMLL (Previously reported sequence) [SEQ ID NO: 1130, reference compound]	79
CVTKPLSSLLFPNWNTTTTPTPP (Previously reported sequence) [SEQ ID NO: 1102, reference compound]	92
DKPEESSSTPTHAQCICSSLSEAIVSSVLSTRLVLSQISLTRAKRAFE (Previously reported sequence) [SEQ ID NO: 1121, reference compound]	87
DPLPIIYYVGRNVRVEQLSNMVVRACKCS (Previously reported sequence) [SEQ ID NO: 1089, reference compound]	97
ENVNLKKYRNMIVKSCGCH (Previously reported sequence) [SEQ ID NO: 1090, reference compound]	97
FDSRVLKSAISFKENIIF (Previously reported sequence) [SEQ ID NO: 1128, reference compound]	89
